Eleven molecules from patent publication US20250223306A1, “TEAD INHIBITORS AND METHODS OF USE” (Sporos BioDiscovery, Inc., priority 2022, published 2025) can be followed below.

One assay concerns Mero14 cells. Kind of assay: Mero14 proliferation and cell viability assay (CTG). Conditions: Mero14 cell line, 144 hours. Format: cell-based. As for the experimental part: Mero14 cells were trypsinised, counted and plated at 400 cells/well in 200 μl of growth media in 96 well flat bottom tissue culture treated plates. The plated cells were incubated overnight at 37° C., 5% CO2 before being treated with compounds in triplicate for each assay point. 50 μl of the serially diluted compound was added to each well giving a final DMSO concentration of 0.5% per well and a total volume of 250 μl per well. The treated cells were incubated for 144 hours (6 days) at 37° C., 5% CO2. Following compound treatment the remaining viable cells were detected using the Promega CellTiter-Glo 2.0 assay as follows: 150 μl of media was removed from each of the wells to be assayed and 100 μl of room temperature CellTiter-Glo 2.0 reagent was added. The plate was placed on an orbital shaker at 500 rpm at room temperature for 2 minutes, and then incubated without shaking for a further 10 minutes at room temperature. 150 μl of cell lysate was removed from each well and dispensed into a single well of a white opaque 96 well plate.
Luminescence at 545 nm was read using a BMG CLARIOstar plate reader. The luminescent signal was directly proportional to number of viable cells, the percent of viable cells relative to the DMSO control was then calculated for each assay point. Percent viability relative to DMSO control is plotted against compound concentration and a curve fitted with non-linear regression in GraphPad Prism software. IC50 values were calculated using GraphPad Prism software as follows: For Relative IC50 values, a non-constrained four-parameter logistic curve fit was used (Sigmoidal, 4PL, X is concentration). For Absolute IC50 values the baseline was constrained to Y=0 (Absolute IC50, X is concentration). Area Under the Curve (AUC): Prism computed area-under-the-curve by the trapezoidal method. The analysis sees a fitted curve as simply a series of connected XY points. Prism simply computes the area under the “curve” defined by connecting the points by straight lines. The units of the AUC are the units of the Y axis times units of the X axis.

For a further assay, the system named is SDM103T2 cells. Kind of assay: SDM103T2 proliferation and cell viability assay (CTG). Format: cell-based. Conditions: SDM103T2 cell line, 144 hours. The procedure:
SDM103T2 cells were trypsinised, counted and plated at the specified cell density in 200 μl of growth media in 96 well flat bottom tissue culture treated plates. The plated cells were incubated overnight at 37° C., 5% CO2 before being treated with compounds in triplicate for each assay point. 50 μl of the serially diluted compound was added to each well giving a final DMSO concentration of 0.5% per well and a total volume of 250 μl per well. The treated cells were incubated for 144 hours (6 days) at 37° C., 5% CO2. Following compound treatment the remaining viable cells were detected using the Promega CellTiter-Glo 2.0 assay as follows: 150 μl of media was removed from each of the wells to be assayed and 100 μl of room temperature CellTiter-Glo 2.0 reagent was added. The plate was placed on an orbital shaker at 500 rpm at room temperature for 2 minutes, and then incubated without shaking for a further 10 minutes at room temperature. 150 μl of cell lysate was removed from each well and dispensed into a single well of a white opaque 96 well plate. Luminescence at 545 nm was read using a BMG CLARIOstar plate reader. The luminescent signal was directly proportional to number of viable cells, the percent of viable cells relative to the DMSO control was then calculated for each assay point. Percent viability relative to DMSO control was plotted against compound concentration and a curve fitted with non-linear regression in GraphPad Prism software. EC50 and IC50 values were calculated using GraphPad Prism software as follows: For EC50 values a non-constrained four-parameter logistic curve fit was used (Sigmoidal, 4PL, X is concentration). For Absolute IC50 values the baseline was constrained to Y=0 (Absolute IC50, X is concentration). Area Under the Curve (AUC): Prism computes area-under-the-curve by the trapezoidal method. The analysis sees a fitted curve as simply a series of connected XY points. Prism simply computes the area under the “curve” defined by connecting the points by straight lines. The units of the AUC are the units of the Y axis times units of the X axis.

The target in another assay is TEAD1 (Homo sapiens, UniProt P28347). The assay is described as follows: TEAD thermal shift assay (TSA). Format: binding.
In the next assay the target is TEAD2 (Homo sapiens, UniProt Q15562). The assay is described as follows: TEAD thermal shift assay (TSA). Format: binding.
In another assay the target is TEAD3 (Homo sapiens, UniProt Q99594). The assay is described as follows: TEAD thermal shift assay (TSA). Format: binding.
The target in a further assay is TEAD4 (Homo sapiens, UniProt Q15561). Kind of assay: TEAD thermal shift assay (TSA). Format: binding.
Where [1] appears, read: ratio of protein to compound 1:1.
Setting [2] is: ratio of protein to compound 1:3.

What is called EC50 is the concentration needed to bring the measured effect to its halfway point.

The structures appear in SMILES notation.

Sequence of TEAD1 (P28347 whole entry): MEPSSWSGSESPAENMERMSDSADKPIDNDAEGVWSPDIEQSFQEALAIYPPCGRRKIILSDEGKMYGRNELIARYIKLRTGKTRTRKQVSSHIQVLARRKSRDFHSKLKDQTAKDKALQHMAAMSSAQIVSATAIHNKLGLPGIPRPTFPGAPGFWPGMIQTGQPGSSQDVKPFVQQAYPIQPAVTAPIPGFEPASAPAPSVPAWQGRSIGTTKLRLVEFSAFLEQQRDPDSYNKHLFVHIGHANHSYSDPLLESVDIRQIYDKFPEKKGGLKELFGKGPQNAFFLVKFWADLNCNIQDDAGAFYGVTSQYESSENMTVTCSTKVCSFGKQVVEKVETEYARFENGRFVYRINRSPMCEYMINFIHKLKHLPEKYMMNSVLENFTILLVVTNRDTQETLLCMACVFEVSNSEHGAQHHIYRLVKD
Sequence of TEAD3 (Q99594 whole entry): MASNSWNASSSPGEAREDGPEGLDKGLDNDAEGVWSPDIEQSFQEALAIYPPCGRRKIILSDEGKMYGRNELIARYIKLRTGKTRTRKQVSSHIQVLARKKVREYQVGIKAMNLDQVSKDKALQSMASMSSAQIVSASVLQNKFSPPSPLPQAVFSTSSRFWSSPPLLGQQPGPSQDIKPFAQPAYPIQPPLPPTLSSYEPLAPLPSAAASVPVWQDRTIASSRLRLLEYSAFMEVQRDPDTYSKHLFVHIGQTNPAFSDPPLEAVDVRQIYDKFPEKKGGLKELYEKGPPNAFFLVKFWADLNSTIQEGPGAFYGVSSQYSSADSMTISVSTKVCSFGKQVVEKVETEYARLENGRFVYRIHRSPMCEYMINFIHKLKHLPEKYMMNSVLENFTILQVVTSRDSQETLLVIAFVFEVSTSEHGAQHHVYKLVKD
Sequence of TEAD2 (Q15562 whole entry): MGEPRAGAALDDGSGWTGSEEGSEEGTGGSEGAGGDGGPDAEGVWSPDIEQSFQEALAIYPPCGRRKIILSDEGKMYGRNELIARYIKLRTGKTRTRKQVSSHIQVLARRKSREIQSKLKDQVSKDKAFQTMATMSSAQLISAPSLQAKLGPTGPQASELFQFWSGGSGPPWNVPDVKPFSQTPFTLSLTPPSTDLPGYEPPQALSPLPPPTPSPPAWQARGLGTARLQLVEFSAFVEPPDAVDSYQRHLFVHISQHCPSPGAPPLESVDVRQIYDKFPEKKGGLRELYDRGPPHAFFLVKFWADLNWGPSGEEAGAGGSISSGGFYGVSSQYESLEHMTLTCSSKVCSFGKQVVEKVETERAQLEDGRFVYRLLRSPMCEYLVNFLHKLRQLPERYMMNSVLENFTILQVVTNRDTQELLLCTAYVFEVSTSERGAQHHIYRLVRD
Sequence of TEAD4 (Q15561 whole entry): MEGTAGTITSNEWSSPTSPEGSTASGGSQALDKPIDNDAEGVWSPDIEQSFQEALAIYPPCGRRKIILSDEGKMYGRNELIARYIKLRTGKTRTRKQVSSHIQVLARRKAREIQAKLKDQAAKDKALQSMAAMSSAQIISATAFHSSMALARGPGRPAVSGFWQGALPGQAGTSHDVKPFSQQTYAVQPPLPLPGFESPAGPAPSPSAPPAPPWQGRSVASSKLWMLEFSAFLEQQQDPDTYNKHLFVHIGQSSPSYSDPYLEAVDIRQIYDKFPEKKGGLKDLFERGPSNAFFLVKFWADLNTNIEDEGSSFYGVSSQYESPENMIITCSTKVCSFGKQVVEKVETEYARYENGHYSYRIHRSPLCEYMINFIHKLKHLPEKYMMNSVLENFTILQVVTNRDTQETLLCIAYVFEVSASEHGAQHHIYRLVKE

As to `C[C@H](NC(=O)c1cnc2c(C3=CC[C@@H](C(F)(F)F)CC3)cccc2c1)c1ncco1` (single isomer, unassigned) [Compound 19, N-(1-(oxazol-2-yl)ethyl)-8-(4-(trifluoromethyl)cyclohex-1-en-1-yl)quinoline-3-carboxamide], the half-maximal effective concentration (EC50) in the assay on Mero14 cells and in the assay on SDM103T2 cells was below 200 nM each time. The “TEAD1 ΔTm” value at TEAD1 (setting [1]) and at TEAD1 (setting [2]) was 12 °C throughout. The figures for the “TEAD2 ΔTm” value at TEAD2 (setting [1]) and at TEAD2 (setting [2]) were 2 °C and 3 °C, respectively. Further, the “TEAD3 ΔTm” value at TEAD3 (setting [1]) was found to be 2 °C; at TEAD3 (setting [2]), 4 °C. Moreover, the “TEAD4 ΔTm” value was 2 °C at TEAD4 (setting [1]) and 3 °C at TEAD4 (setting [2]).

On to `FC(F)(F)c1ccc(CN2CCC(C3CC(Br)=NO3)CC2)cc1` (stereo not drawn) [Compound 1-2, reference compound], for which the concentration for a half-maximal effect (EC50) is 200 to 1000 nM in the assay with Mero14 cells and above 1000 nM in the assay on SDM103T2 cells.

For the molecule `C=CC(=O)Nc1ccc(C)c(Oc2ccc(Cl)cc2)c1` [Compound 1-3, reference compound], the EC50 with Mero14 cells and with SDM103T2 cells was below 200 nM throughout.

For the molecule `C[C@H](CO)NC(=O)c1cnc2c(C3=CCC(C(F)(F)F)CC3)cccc2c1` (stereo partly drawn) [Compound 7, N—((R)-1-hydroxypropan-2-yl)-8-(4-(trifluoromethyl)cyclohex-1-en-1-yl)quinoline-3-carboxamide], the 50% effective concentration (EC50) in the assay on Mero14 cells and in the assay with SDM103T2 cells was below 200 nM each time. In addition, the “TEAD1 ΔTm” value came to 9 °C on TEAD1 (setting [1]) and 11 °C at TEAD1 (setting [2]). Moreover, the “TEAD2 ΔTm” value on TEAD2 (setting [1]) stood at 2 °C; at TEAD2 (setting [2]), 3 °C. Moreover, the “TEAD3 ΔTm” value at TEAD3 (setting [1]) and on TEAD3 (setting [2]) was 2 °C throughout. Also, the figures for the “TEAD4 ΔTm” value at TEAD4 (setting [1]) and at TEAD4 (setting [2]) were 1.5 °C and 3 °C, respectively.

As to `O=C(NCc1ncco1)c1cnc2c(C3=CCC(C(F)(F)F)CC3)cccc2c1` (stereo not drawn) [Compound 11, N-(oxazol-2-ylmethyl)-8-(4-(trifluoromethyl)cyclohex-1-en-1-yl)quinoline-3-carboxamide], the EC50 in the assay on Mero14 cells and with SDM103T2 cells was below 200 nM throughout. The “TEAD1 ΔTm” value amounted to 11 °C on TEAD1 (setting [1]) and 11.5 °C on TEAD1 (setting [2]). Also, the “TEAD2 ΔTm” value at TEAD2 (setting [1]) and at TEAD2 (setting [2]) was 3 °C each time. Further, the entries for the “TEAD3 ΔTm” value at TEAD3 (setting [1]) and on TEAD3 (setting [2]) were 3.5 °C and 3 °C, respectively. Also, the “TEAD4 ΔTm” value on TEAD4 (setting [1]) worked out at 1.5 °C; on TEAD4 (setting [2]) it was 2.5 °C.

With `O=C(NCc1ccn[nH]1)c1cnc2c(C3=CCC(C(F)(F)F)CC3)cccc2c1` (stereo not drawn) [Compound 47, N-((1H-pyrazol-5-yl)methyl)-8-(4-(trifluoromethyl)cyclohex-1-en-1-yl)quinoline-3-carboxamide], the 50% effective concentration (EC50) with Mero14 cells and with SDM103T2 cells was below 200 nM in each case. For the same molecule, the figures for the “TEAD1 ΔTm” value on TEAD1 (setting [1]) and at TEAD1 (setting [2]) were 9 °C and 11 °C, respectively. In addition, the “TEAD2 ΔTm” value at TEAD2 (setting [1]) and on TEAD2 (setting [2]) was 2 °C in each case. Besides, the “TEAD3 ΔTm” value on TEAD3 (setting [1]) turned out to be 2 °C; on TEAD3 (setting [2]), 3 °C. Moreover, the “TEAD4 ΔTm” value at TEAD4 (setting [1]) and at TEAD4 (setting [2]) was 3 °C each time.

Turning to `COC[C@H](CO)NC(=O)c1cnc2c(C3=CCC(C(F)(F)F)CC3)cccc2c1` (stereo partly drawn) [Compound 62, N—((S)-1-hydroxy-3-methoxypropan-2-yl)-8-(4-(trifluoromethyl)cyclohex-1-en-1-yl)quinoline-3-carboxamide], the EC50 with Mero14 cells and with SDM103T2 cells was below 200 nM in each case. In addition, the “TEAD1 ΔTm” value on TEAD1 (setting [1]) is 9 °C; at TEAD1 (setting [2]), 11 °C. In addition, the “TEAD2 ΔTm” value on TEAD2 (setting [1]) and at TEAD2 (setting [2]) was 3 °C throughout. Also, the “TEAD3 ΔTm” value at TEAD3 (setting [1]) is 1 °C; on TEAD3 (setting [2]), 2 °C. In addition, the results for the “TEAD4 ΔTm” value on TEAD4 (setting [1]) and on TEAD4 (setting [2]) were 2 °C and 3 °C, respectively.

Regarding `COc1cc(C2=CCC(C(F)(F)F)CC2)c2ncc(C(=O)N[C@H](C)c3ncco3)cc2c1` (stereo partly drawn) [Compound 109, 6-methoxy-N—((R)-1-(oxazol-2-yl)ethyl)-8-(4-(trifluoromethyl)cyclohex-1-en-1-yl)quinoline-3-carboxamide], the concentration for a half-maximal effect (EC50) in the assay with Mero14 cells and in the assay with SDM103T2 cells was below 200 nM in each case. Further, the “TEAD1 ΔTm” value was determined as 13 °C on TEAD1 (setting [1]) and 14 °C on TEAD1 (setting [2]). Also, the “TEAD2 ΔTm” value at TEAD2 (setting [1]) was found to be 3 °C; at TEAD2 (setting [2]), 2 °C. In addition, the “TEAD3 ΔTm” value came to 2 °C at TEAD3 (setting [1]) and 3 °C at TEAD3 (setting [2]). The “TEAD4 ΔTm” value on TEAD4 (setting [1]) was 1 °C; at TEAD4 (setting [2]), 2 °C.

On to `COc1cc(C2=CCC(C(F)(F)F)CC2)c2ncc(C(=O)N[C@H](C)CO)cc2c1` (stereo partly drawn) [Compound 110, N—((R)-1-hydroxypropan-2-yl)-6-methoxy-8-(4-(trifluoromethyl)cyclohex-1-en-1-yl)quinoline-3-carboxamide], for which the concentration giving a half-maximal response (EC50) with Mero14 cells and in the assay with SDM103T2 cells was below 200 nM throughout. The “TEAD1 ΔTm” value on TEAD1 (setting [1]) was 14 °C; on TEAD1 (setting [2]), 16 °C. In addition, the “TEAD2 ΔTm” value at TEAD2 (setting [1]) is 2 °C; on TEAD2 (setting [2]) it was 3 °C. The “TEAD3 ΔTm” value at TEAD3 (setting [1]) stood at 2 °C; at TEAD3 (setting [2]), 3 °C. Further, the “TEAD4 ΔTm” value at TEAD4 (setting [1]) came to 2 °C; at TEAD4 (setting [2]), 3 °C.

Take `C[C@H](CO)NC(=O)c1cnc2c(C3=CCC4(CC3)CC(F)(F)C4)cccc2c1` [Compound 165, (R)-8-(2,2-difluorospiro[3.5]non-6-en-7-yl)-N-(1-hydroxypropan-2-yl)quinoline-3-carboxamide]: the 50% effective concentration (EC50) with Mero14 cells and in the assay with SDM103T2 cells was below 200 nM each time.

On to `C[C@@H](NC(=O)c1cnc2c(C3=CCC4(CC3)CC4)cccc2c1)c1ncco1` [Compound 166, (R)—N-(1-(oxazol-2-yl)ethyl)-8-(spiro[2.5]oct-5-en-6-yl)quinoline-3-carboxamide], for which the concentration giving a half-maximal response (EC50) in the assay with Mero14 cells and in the assay with SDM103T2 cells was below 200 nM in each case.
